From patent US6057317A, “Heterocyclic compounds” (Adir et Compagnie, priority 1997, dated 2000)

Legend:
imidazoline I1 receptor = assay: Measurement of in vitro affinity for the I1 receptor (radioligand displacement); assay type: binding; conditions: [3H] clonidine + 10 μM noradrenaline; bovine lateral reticulated nucleus
Protocol: (§1) The profile of binding to the imidazoline I1 and I2 receptors was determined for the compounds of the invention by evaluating the ability of those compounds to displace specific radioligands of the receptors in question.
(§2) The following Table indicates the radioligand used to label each receptor, the compound and the concentration selected to determine the non-specific fraction, and the tissue selected. […]
10 μM reticulated nucleus

SHR rats = assay: Antihypertensive activity in conscious rats; assay type: in vivo, rat; conditions: oral, dose of 15 mg/kg
Protocol: The tests were carried out in SHR rats. The animals are anaesthetised. A heparinised catheter is introduced into the left carotid artery and connected to a recording apparatus so as to measure the systolic and diastolic arterial pressure and the heart rate. The animals are returned to their cage and the tests are carried out after 24 hours.
The parameters to be measured stabilise during a period of at least 30 minutes, during which a maximum of 1.5 ml of saline solution is injected in such a manner as to optimise the measurements. Only animals whose arterial pressure is higher than or equal to 170 mmHg are included in the study.
The test compounds of the carrier are administered orally and the measurements are carried out before the treatment and every ten minutes after treatment, for 4 hours, and then 8 and 24 hours after treatment.

imidazoline I2 receptor = assay: Measurement of in vitro affinity for the I2 receptor (radioligand displacement); assay type: binding; conditions: [3H] idazoxan + 10 μM noradrenaline; renal cortex of rabbit
Protocol: as §1, §2

With Cc1ccc2c(c1)N(C)CC(C1=NCCN1)O2 (stereo not drawn) [Example 2, 2-(4,5-Dihydro-1H-2-imidazolyl)-4,6-dimethyl-3,4-dihydro-2H-1,4-benzoxazineoxalate] the Ki (imidazoline I1 receptor) was 22 nM, the “effect on arterial pressure” value (SHR rats) was “allowed the arterial pressure to be normalized” and the Ki (imidazoline I2 receptor) was 2 nM.
